According to the supplement of paper PMC10307832:

Columns and labels:
Assay in all cases: relative viability (nuclei count vs DMSO), 5 days (fraction); higher = more cells survive
NCI-H1793 = system: NCI-H1793
Procedure, shortened: (§1)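 Medians of duplicate plates are given as relative viability. That measure is the nuclei count in treated wells divided by the count in vehicle wells. Counts were taken on 4× images of lung cancer cell lines in 1536-well plates, 5 days after pin-tool dosing the day after seeding with one drug alone or a fixed anchor-drug dose plus five library-drug doses (not always all listed) in √10 steps.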

A-427 = system: A-427
Procedure, shortened: as §1

LXF-289 = system: LXF-289
Procedure, shortened: as §1

EMC-BAC-2 = system: EMC-BAC-2
Procedure, shortened: as §1

NCI-H2009 = system: NCI-H2009
Procedure, shortened: as §1

SK-MES-1 = system: SK-MES-1
Procedure, shortened: as §1

NCI-H1944 = system: NCI-H1944
Procedure, shortened: as §1

ABC-1 = system: ABC-1
Procedure, shortened: as §1

NCI-H1993 = system: NCI-H1993
Procedure, shortened: as §1

PC-3 [JPC-3] = system: PC-3 [JPC-3]
Procedure, shortened: as §1

NCI-H596 = system: NCI-H596
Procedure, shortened: as §1

NCI-H1792 = system: NCI-H1792
Procedure, shortened: as §1

NCI-H3122 = system: NCI-H3122
Procedure, shortened: as §1

HARA = system: HARA
Procedure, shortened: as §1

SW 1573 = system: SW 1573
Procedure, shortened: as §1

SK-LU-1 = system: SK-LU-1
Procedure, shortened: as §1

HOP-62 = system: HOP-62
Procedure, shortened: as §1

NCI-H2228 = system: NCI-H2228
Procedure, shortened: as §1

COR-L23 = system: COR-L23
Procedure, shortened: as §1

NCI-H727 = system: NCI-H727
Procedure, shortened: as §1

NCI-H2170 = system: NCI-H2170
Procedure, shortened: as §1

LK-2 = system: LK-2
Procedure, shortened: as §1

Oc1nc(-c2ccc(C(F)(F)F)cc2)nc2c1CSCC2 [XAV939] + Cc1nc(NC(=O)N2CCC[C@H]2C(N)=O)sc1-c1ccnc(C(C)(C)C(F)(F)F)c1 [Alpelisib] (partner 2 µM)
relative viability (NCI-H1793; first compound 0.08 µM): 0.589 | relative viability (NCI-H1793; first compound 0.253 µM): 0.59 | relative viability (NCI-H1793; first compound 0.8 µM): 0.697 | relative viability (NCI-H1793; first compound 2.53 µM): 0.708 | relative viability (A-427; first compound 0.08 µM): 1.12 | relative viability (A-427; first compound 0.253 µM): 1.03 | relative viability (A-427; first compound 0.8 µM): 1.03 | relative viability (A-427; first compound 2.53 µM): 1.02 | relative viability (LXF-289; first compound 0.08 µM): 1.04 | relative viability (LXF-289; first compound 0.253 µM): 0.996 | relative viability (LXF-289; first compound 0.8 µM): 1.01 | relative viability (LXF-289; first compound 2.53 µM): 1.01 | relative viability (EMC-BAC-2; first compound 0.08 µM): 0.859 | relative viability (EMC-BAC-2; first compound 0.253 µM): 0.69 | relative viability (EMC-BAC-2; first compound 0.8 µM): 0.621 | relative viability (EMC-BAC-2; first compound 2.53 µM): 0.367 | relative viability (NCI-H2009; first compound 0.08 µM): 1.22 | relative viability (NCI-H2009; first compound 0.253 µM): 1.2 | relative viability (NCI-H2009; first compound 0.8 µM): 1.12 | relative viability (NCI-H2009; first compound 2.53 µM): 0.987 | relative viability (SK-MES-1; first compound 0.08 µM): 0.994 | relative viability (SK-MES-1; first compound 0.253 µM): 0.912 | relative viability (SK-MES-1; first compound 0.8 µM): 0.911 | relative viability (SK-MES-1; first compound 2.53 µM): 0.757 | relative viability (NCI-H1944; first compound 0.08 µM): 0.939 | relative viability (NCI-H1944; first compound 0.253 µM): 0.765 | relative viability (NCI-H1944; first compound 0.8 µM): 0.751 | relative viability (NCI-H1944; first compound 2.53 µM): 0.786 | relative viability (ABC-1; first compound 0.08 µM): 1.14 | relative viability (ABC-1; first compound 0.253 µM): 0.811 | relative viability (ABC-1; first compound 0.8 µM): 0.965 | relative viability (ABC-1; first compound 2.53 µM): 0.428 | relative viability (NCI-H1993; first compound 0.8 µM): 0.635 | relative viability (NCI-H1993; first compound 2.53 µM): 0.633 | relative viability (PC-3 [JPC-3]; first compound 0.08 µM): 1 | relative viability (PC-3 [JPC-3]; first compound 0.253 µM): 0.962 | relative viability (PC-3 [JPC-3]; first compound 0.8 µM): 1.07 | relative viability (PC-3 [JPC-3]; first compound 2.53 µM): 0.962 | relative viability (NCI-H596; first compound 0.08 µM): 0.456 | relative viability (NCI-H596; first compound 0.253 µM): 0.587 | relative viability (NCI-H596; first compound 0.8 µM): 0.534 | relative viability (NCI-H596; first compound 2.53 µM): 0.493 | relative viability (NCI-H1792; first compound 0.08 µM): 0.924 | relative viability (NCI-H1792; first compound 0.253 µM): 0.667 | relative viability (NCI-H1792; first compound 0.8 µM): 0.671 | relative viability (NCI-H1792; first compound 2.53 µM): 0.594 | relative viability (NCI-H3122; first compound 0.08 µM): 0.812 | relative viability (NCI-H3122; first compound 0.253 µM): 0.575 | relative viability (NCI-H3122; first compound 0.8 µM): 0.757 | relative viability (NCI-H3122; first compound 2.53 µM): 0.358 | relative viability (HARA; first compound 0.08 µM): 1.02 | relative viability (HARA; first compound 0.253 µM): 0.643 | relative viability (HARA; first compound 0.8 µM): 0.842 | relative viability (HARA; first compound 2.53 µM): 0.709 | relative viability (SW 1573; first compound 0.08 µM): 0.712 | relative viability (SW 1573; first compound 0.253 µM): 0.552 | relative viability (SW 1573; first compound 0.8 µM): 0.515 | relative viability (SW 1573; first compound 2.53 µM): 0.464 | relative viability (SK-LU-1; first compound 0.08 µM): 0.993 | relative viability (SK-LU-1; first compound 0.253 µM): 0.883 | relative viability (SK-LU-1; first compound 0.8 µM): 1 | relative viability (SK-LU-1; first compound 2.53 µM): 1.07 | relative viability (HOP-62; first compound 0.08 µM): 1.02 | relative viability (HOP-62; first compound 0.253 µM): 0.54 | relative viability (HOP-62; first compound 0.8 µM): 0.673 | relative viability (HOP-62; first compound 2.53 µM): 0.69 | relative viability (NCI-H2228; first compound 0.08 µM): 0.708 | relative viability (NCI-H2228; first compound 0.253 µM): 0.757 | relative viability (NCI-H2228; first compound 0.8 µM): 0.536 | relative viability (NCI-H2228; first compound 2.53 µM): 0.463 | relative viability (COR-L23; first compound 0.08 µM): 1 | relative viability (COR-L23; first compound 0.253 µM): 0.73 | relative viability (COR-L23; first compound 0.8 µM): 0.772 | relative viability (COR-L23; first compound 2.53 µM): 0.576 | relative viability (NCI-H727; first compound 0.08 µM): 0.656 | relative viability (NCI-H727; first compound 0.253 µM): 0.38 | relative viability (NCI-H727; first compound 0.8 µM): 0.626 | relative viability (NCI-H727; first compound 2.53 µM): 0.65 | relative viability (NCI-H2170; first compound 0.08 µM): 0.855 | relative viability (NCI-H2170; first compound 0.253 µM): 0.612 | relative viability (NCI-H2170; first compound 0.8 µM): 0.654 | relative viability (NCI-H2170; first compound 2.53 µM): 0.578 | relative viability (LK-2; first compound 0.08 µM): 1.03 | relative viability (LK-2; first compound 0.253 µM): 1.02 | relative viability (LK-2; first compound 0.8 µM): 1.1 | relative viability (LK-2; first compound 2.53 µM): 0.923
